Measurements reported in PubChem BioAssay AID1963981 (Molecular Pharmacology Branch, DTP, NCI, 2024).

Tested on: 354836-022-R-J1-PDC multicell spheroid viability
Experiment: Anticancer human tumor 354836-022-R-J1-PDC patient-derived head and neck squamous cell carcinoma cell line growth inhibition [PI3K]
Settings: for viability, T/C: stronger effect = lower value
Excerpt: Combinatorial screen of targeted agents with the PI3K inhibitors inavolisib, alpelisib, duvelisib, and copanlisib in multi-cell type tumor spheroids
A high-throughput screen of multi-cell type tumor spheroids was designed to identify active combinations of targeted small molecules and PI3K pathway inhibitors. Complex spheroids include a stromal component modeled by human endothelial cells (HUVEC) and fibroblasts modeled by human mesenchymal stem cells (MSCs). The concentration ranges selected for each drug and investigational agent were based upon clinically achievable concentrations if the clinical Cmax of the agent was known.
Compounds. The drugs and investigational agents: inavolisib (NSC800729), alpelisib (NSC765974), duvelisib (NSC772469), copanlisib (NSC816437), ipatasertib (NSC767898), afuresertib (NSC778305), talazoparib (NSC767125), sapanisertib (NSC764658), selumetinib (NSC741078), tovorafenib (DAY101, NSC766906), vemurafenib (NSC761431), ravoxertinib (NSC781343), sotorasib (NSC818433), MRTX1133 (NSC 836407), abemaciclib (NSC 768073), palbociclib (NSC758247), venetoclax (NSC 766270), SY5609 (NSC837396), enzalutamide (NSC755605), and darolutamide (NSC825331), were obtained from the National Cancer Institute (NCI) Developmental Therapeutics Program Chemical Repository. The FDA-approved anticancer drug set is available from the NCI Developmental Therapeutics Program. […] The stock solutions were prepared in dimethyl sulfoxide (DMSO, Sigma-Aldrich, St. Louis, MO, cat. D2650) at 800-fold the tested concentration and stored at -70 degrees C prior to their use. All drugs and investigational agents were tested over a range starting from a high concentration at or near the clinical Cmax and decreasing in half-log increments. If the clinical Cmax for an agent had not been determined, the highest concentration tested was 10 microM.
Cell Culture. All cells were maintained in an incubator at 37 degrees C and 5% CO2 with 95% humidity. The PDC lines were cultured according to standard operating procedures established by the NCI PDMR (https://pdmr.cancer.gov/sops/default.htm). All PDCs were thawed and cultured in Matrigel-coated flasks prepared with a working solution of 1X Ham's F-12 nutrient mix, without supplementation (Invitrogen, Waltham, MA, cat. 11765054), 100 U/mL penicillin-streptomycin (Invitrogen, cat. 15140122), and 2.5% Matrigel (Corning Inc., Corning, NY, cat. 354248) for the first three passages. The 354836-022-R-J1-PDC, 475296-252-R-J1-PDC, and 997726-040-R-J2-PDC lines were cultured in 6A media, which includes advanced DMEM/F-12 (Thermo Fisher Scientific, cat. 12634028), 10 mM HEPES (Thermo Fisher Scientific, cat. 15630080), 1X GlutaMAX supplement (Thermo Fisher Scientific, cat. 35050061), 0.1 mg/mL primocin (InvivoGen, San Diego, CA, cat. ant-pm-2), 10% defined fetal bovine serum, heat inactivated (HyClone Laboratories Inc., Logan, UT, cat. SH30070.03HI), 50% L-WRN conditioned media (ATCC, cat. CRL-3276), 1.25 mM N-Acetyl-L-cysteine (Sigma-Aldrich, cat. A9165), 10 mM nicotinamide (Sigma-Aldrich, cat. N0636), 1X B-27 supplement (Thermo Fisher Scientific, cat. 17504044), 1X N-2 supplement (Thermo Fisher Scientific, cat. 17502048), and 10 microM Y-27632 dihydrochloride (Tocris Bioscience, Bristol, United Kingdom, cat. 1254). The 624824-186-R-J2-PDC line was cultured in 6C/Colon 1B media, which includes all 6A media components plus 50 ng/mL human EGF recombinant protein (Thermo Fisher Scientific, cat. PHG0311). […]

[1] = curve of first compound, second compound 0.00316 µM
[2] = curve of first compound, second compound 0.01 µM
[3] = curve of first compound, second compound 0.0316 µM
[4] = curve of first compound, second compound 0.1 µM
[5] = curve of first compound, second compound 0.316 µM
[6] = curve of first compound, second compound 1 µM
[7] = second compound 0.00316 µM, first compound 0.0316 µM
[8] = second compound 0.00316 µM, first compound 0.1 µM
[9] = second compound 0.00316 µM, first compound 0.316 µM
[10] = second compound 0.00316 µM, first compound 1 µM
[11] = second compound 0.00316 µM, first compound 3.16 µM
[12] = second compound 0.00316 µM, first compound 10 µM
[13] = second compound 0.01 µM, first compound 0.0316 µM
[14] = second compound 0.01 µM, first compound 0.1 µM
[15] = second compound 0.01 µM, first compound 0.316 µM
[16] = second compound 0.01 µM, first compound 1 µM
[17] = second compound 0.01 µM, first compound 3.16 µM
[18] = second compound 0.01 µM, first compound 10 µM
[19] = second compound 0.0316 µM, first compound 0.0316 µM
[20] = second compound 0.0316 µM, first compound 0.1 µM
[21] = second compound 0.0316 µM, first compound 0.316 µM
[22] = second compound 0.0316 µM, first compound 1 µM
[23] = second compound 0.0316 µM, first compound 3.16 µM
[24] = second compound 0.0316 µM, first compound 10 µM
[25] = second compound 0.1 µM, first compound 0.0316 µM
[26] = second compound 0.1 µM, first compound 0.1 µM
[27] = second compound 0.1 µM, first compound 0.316 µM
[28] = second compound 0.1 µM, first compound 1 µM
[29] = second compound 0.1 µM, first compound 3.16 µM
[30] = second compound 0.1 µM, first compound 10 µM
[31] = second compound 0.316 µM, first compound 0.0316 µM
[32] = second compound 0.316 µM, first compound 0.1 µM
[33] = second compound 0.316 µM, first compound 0.316 µM
[34] = second compound 0.316 µM, first compound 1 µM
[35] = second compound 0.316 µM, first compound 3.16 µM
[36] = second compound 0.316 µM, first compound 10 µM
[37] = second compound 1 µM, first compound 0.0316 µM
[38] = second compound 1 µM, first compound 0.1 µM
[39] = second compound 1 µM, first compound 0.316 µM
[40] = second compound 1 µM, first compound 1 µM
[41] = second compound 1 µM, first compound 3.16 µM
[42] = second compound 1 µM, first compound 10 µM
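Also: spheroids exposed to agents for seven days before the viability read.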

CC1(C)CCC(CN2CCN(c3ccc(C(=O)NS(=O)(=O)c4ccc(NCC5CCOCC5)c([N+](=O)[O-])c4)c(Oc4cnc5[nH]ccc5c4)c3)CC2)=C(c2ccc(Cl)cc2)C1 + CC(Nc1ccc2c(c1)OCCn1cc(N3C(=O)OCC3C(F)F)nc1-2)C(N)=O
IC50 [1]: 4.39 µM
IC50 [2]: 4 µM
IC50 [3]: 3.5 µM
IC50 [4]: 4.25 µM
IC50 [5]: 3.35 µM
IC50 [6]: 2.32 µM
viability, T/C [7]: 96.5%
viability, T/C [8]: 96.9%
viability, T/C [9]: 87.7%
viability, T/C [10]: 70.5%
viability, T/C [11]: 74.6%
viability, T/C [12]: 8.4%
viability, T/C [13]: 106%
viability, T/C [14]: 91%
viability, T/C [15]: 95.2%
viability, T/C [16]: 81.1%
viability, T/C [17]: 62.8%
viability, T/C [18]: 9.3%
viability, T/C [19]: 89.1%
viability, T/C [20]: 103%
viability, T/C [21]: 92.3%
viability, T/C [22]: 99.5%
viability, T/C [23]: 54%
viability, T/C [24]: 8.28%
viability, T/C [25]: 81.4%
viability, T/C [26]: 81.6%
viability, T/C [27]: 94.2%
viability, T/C [28]: 85.5%
viability, T/C [29]: 63.4%
viability, T/C [30]: 11.4%
viability, T/C [31]: 71%
viability, T/C [32]: 69.2%
viability, T/C [33]: 72.8%
viability, T/C [34]: 69.8%
viability, T/C [35]: 52%
viability, T/C [36]: 10.8%
viability, T/C [37]: 62%
viability, T/C [38]: 56.2%
viability, T/C [39]: 50.2%
viability, T/C [40]: 64.7%
viability, T/C [41]: 47%
viability, T/C [42]: 10.2%

CC1(C)CCC(CN2CCN(c3ccc(C(=O)NS(=O)(=O)c4ccc(NCC5CCOCC5)c([N+](=O)[O-])c4)c(Oc4cnc5[nH]ccc5c4)c3)CC2)=C(c2ccc(Cl)cc2)C1 + CC(Nc1ncnc2nc[nH]c12)c1cc2cccc(Cl)c2c(=O)n1-c1ccccc1
IC50 [3]: > 10 µM
IC50 [4]: > 10 µM
IC50 [5]: > 10 µM
IC50 [6]: > 10 µM
IC50 (curve of first compound, second compound 3.16 µM): > 10 µM
IC50 (curve of first compound, second compound 10 µM): > 10 µM
viability, T/C [19]: 92.4%
viability, T/C [20]: 78%
viability, T/C [21]: 85.5%
viability, T/C [22]: 91.7%
viability, T/C [23]: 71.3%
viability, T/C [24]: 110%
viability, T/C [25]: 81.3%
viability, T/C [26]: 89.1%
viability, T/C [27]: 97.8%
viability, T/C [28]: 99.5%
viability, T/C [29]: 67.2%
viability, T/C [30]: 93%
viability, T/C [31]: 86.3%
viability, T/C [32]: 105%
viability, T/C [33]: 103%
viability, T/C [34]: 97.7%
viability, T/C [35]: 64.1%
viability, T/C [36]: 93%
viability, T/C [37]: 106%
viability, T/C [38]: 92.8%
viability, T/C [39]: 93.4%
viability, T/C [40]: 80.9%
viability, T/C [41]: 66.4%
viability, T/C [42]: 87.2%
viability, T/C (second compound 3.16 µM, first compound 0.0316 µM): 89.1%
viability, T/C (second compound 3.16 µM, first compound 0.1 µM): 106%
viability, T/C (second compound 3.16 µM, first compound 0.316 µM): 95.2%
viability, T/C (second compound 3.16 µM, first compound 1 µM): 85.6%
viability, T/C (second compound 3.16 µM, first compound 3.16 µM): 60.8%
viability, T/C (second compound 3.16 µM, first compound 10 µM): 93.5%
viability, T/C (second compound 10 µM, first compound 0.0316 µM): 90.9%
viability, T/C (second compound 10 µM, first compound 0.1 µM): 87%
viability, T/C (second compound 10 µM, first compound 0.316 µM): 90.2%
viability, T/C (second compound 10 µM, first compound 1 µM): 82.2%
viability, T/C (second compound 10 µM, first compound 3.16 µM): 53%
viability, T/C (second compound 10 µM, first compound 10 µM): 76.2%

Cn1ncnc1[C@H]1c2n[nH]c(=O)c3cc(F)cc(c23)N[C@@H]1c1ccc(F)cc1
viability, T/C (compound 0.000316 µM): 101% [middle of 4 runs]
viability, T/C (compound 0.001 µM): 100% [middle of 4 runs]
viability, T/C (compound 0.00316 µM): 98.7% [middle of 4 runs]
viability, T/C (compound 0.01 µM): 92.5% [middle of 4 runs]
viability, T/C (compound 0.0316 µM): 96.4% [middle of 4 runs]
viability, T/C (compound 0.1 µM): 92.1% [middle of 4 runs]
IC50 (curve of compound): > 0.1 µM

CC(Cn1ccc(-c2ccc(C#N)c(Cl)c2)n1)NC(=O)c1cc(C(C)O)[nH]n1 (stereo not drawn) + CC(Nc1ccc2c(c1)OCCn1cc(N3C(=O)OCC3C(F)F)nc1-2)C(N)=O
IC50 [1]: > 10 µM
IC50 [2]: > 10 µM
IC50 [3]: > 10 µM
IC50 [4]: > 10 µM
IC50 [5]: > 10 µM
IC50 [6]: 8.45 µM
viability, T/C [7]: 99.4%
viability, T/C [8]: 88.8%
viability, T/C [9]: 96.7%
viability, T/C [10]: 86.8%
viability, T/C [11]: 94.3%
viability, T/C [12]: 73.8%
viability, T/C [13]: 95.9%
viability, T/C [14]: 103%
viability, T/C [15]: 99.6%
viability, T/C [16]: 81.8%
viability, T/C [17]: 88.3%
viability, T/C [18]: 74.8%
viability, T/C [19]: 78.9%
viability, T/C [20]: 87.6%
viability, T/C [21]: 92.5%
viability, T/C [22]: 97.4%
viability, T/C [23]: 91.1%
viability, T/C [24]: 81.8%
viability, T/C [25]: 77.2%
viability, T/C [26]: 91.9%
viability, T/C [27]: 83.7%
viability, T/C [28]: 87.3%
viability, T/C [29]: 73.9%
viability, T/C [30]: 82.9%
viability, T/C [31]: 75.3%
viability, T/C [32]: 67.5%
viability, T/C [33]: 69.8%
viability, T/C [34]: 75.5%
viability, T/C [35]: 76.8%
viability, T/C [36]: 63.6%
viability, T/C [37]: 71.2%
viability, T/C [38]: 67.4%
viability, T/C [39]: 69.5%
viability, T/C [40]: 64.3%
viability, T/C [41]: 61.4%
viability, T/C [42]: 48%
